Reference: patent publication US12043613B2, “Inhibitors of SARM1” (Disarm Therapeutics, Inc., priority 2020, dated 2024)

Target: T1, SARM1 (ARM-SAM-TIR, full length SARM1) (Homo sapiens, UniProt Q6SZW1)
T1 sequence (Q6SZW1 with tags, fused parts or gaps): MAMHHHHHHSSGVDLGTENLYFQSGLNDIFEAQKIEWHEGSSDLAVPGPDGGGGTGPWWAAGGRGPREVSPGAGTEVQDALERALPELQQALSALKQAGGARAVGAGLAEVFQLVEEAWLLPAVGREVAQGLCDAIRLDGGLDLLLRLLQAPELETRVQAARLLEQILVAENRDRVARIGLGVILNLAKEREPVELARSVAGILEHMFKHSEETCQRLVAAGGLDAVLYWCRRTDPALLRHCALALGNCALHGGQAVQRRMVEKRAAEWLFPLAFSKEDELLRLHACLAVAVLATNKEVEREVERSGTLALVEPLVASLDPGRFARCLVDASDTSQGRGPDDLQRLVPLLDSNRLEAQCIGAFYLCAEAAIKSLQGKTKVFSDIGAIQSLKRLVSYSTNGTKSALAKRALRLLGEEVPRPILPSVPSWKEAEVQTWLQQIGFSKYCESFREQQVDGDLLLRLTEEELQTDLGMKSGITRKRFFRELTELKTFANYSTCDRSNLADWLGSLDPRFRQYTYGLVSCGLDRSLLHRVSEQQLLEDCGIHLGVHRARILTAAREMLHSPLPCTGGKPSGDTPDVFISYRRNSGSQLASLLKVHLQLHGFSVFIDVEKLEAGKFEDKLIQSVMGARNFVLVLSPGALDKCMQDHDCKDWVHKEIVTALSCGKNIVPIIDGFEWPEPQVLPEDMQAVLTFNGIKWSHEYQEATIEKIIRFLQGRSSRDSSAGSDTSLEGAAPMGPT
Experiment: biochemical
Settings: SARM1 IC50 (nM), ARM-SAM-TIR lysate 5 μg/mL from NRK1-HEK293T cells, 2 h pre-incubation, 5 uM NAD+, 2 hr room temperature
Experimental: This assay makes use of full length SARM1, which encompasses the ARM, SAM and TIR domains.
Preparation of ARM-SAM-TIR lysate (STL)
NRK1-HEK293T cells were seeded onto 150 cm^2 plates at 20×10^6 cells per plate. The next day, the cells were transfected with 15 g ARM-SAM-TIR expression plasmid, SEQ ID NO: 1.
The cultures were supplemented with 1 mM NR at time of transfection to minimize toxicity from ARM-SAM-TIR overexpression. Forty-eight hours after transfection, cells were harvested, pelleted by centrifugation at 1,000 rpm (Sorvall ST 16R centrifuge, Thermo Fisher), and washed once with cold PBS (0.01 M phosphate buffered saline NaCl 0.138 M; KCl 0.0027 M; pH 7.4). The cells were resuspended in PBS with protease inhibitors (cOmplete™ protease inhibitor cocktail, Roche product #11873580001) and cell lysates were prepared by sonication (Branson Sonifer 450, output=3, 20 episodes of stroke). The lysates were centrifuged (12,000×g for 10 min at 4° C.) to remove cell debris and the supernatants (containing ARM-SAM-TIR protein) were stored at −80° C. for later use in the in vitro ARM-SAM-TIR NADase assay (see below). Protein concentration was determined by the Bicinchoninic (BCA) method and used to normalize lysate concentrations.
ARM-SAM-TIR IC50 assay of Formula I compounds.
The enzymatic assay was performed in a 384-well polypropylene plate in Dulbecco's PBS buffer in a final assay volume of 20 μL. ARM-SAM-TIR lysate with a final concentration of 5 μg/mL was pre-incubated with the respective compound at 1% DMSO final assay concentration over 2h at room temperature. The reaction was initiated by addition of 5 uM final assay concentration of NAD+ as substrate. After a 2 hr room temperature incubation, the reaction was terminated with 40 μL of stop solution of 7.5% trichloroactetic acid in acetonitrile. The NAD+ and ADPR concentrations were analyzed by a RapidFire High Throughput Mass Spectrometry System (Agilent Technologies, Santa Clara, Calif.) using an API4000 triple quadrupole mass spectrometer (AB Sciex Framingham, Mass.).

First: N#Cc1ccc(CC2CCN(c3[nH]nc(-c4ccncc4)c3F)C2=O)cc1F (centres unmarked) [Compound I-25]
Second: Cc1c(-c2ccncc2)n[nH]c1N1CCC(Cc2ccc(F)c(F)c2)C1=O (single isomer, unassigned) [I-49* (peak 2)]
The IC50 of the first is higher: 101 to 500 nM for the first, 51 to 100 nM for the second. The second is the more potent here.

First: N[C@H]1CC(Cc2ccc(Cl)nc2)C(=O)N(c2cc(-c3ccncc3)n[nH]2)C1 (single isomer, unassigned) [I-60* (peak 1)]
Second: O=C1C(Cc2ccc(Cl)nc2)CCN1c1cc(-c2ccncc2)n[nH]1 (centres unmarked) [Compound I-17]
The IC50 of the first is higher: > 1000 nM for the first, < 50 nM for the second.

First: CC1(Cc2ccc(F)c(F)c2)CCN(c2nc(-c3ccncc3)n[nH]2)C1=O (centres unmarked) [Compound I-43]
Second: CC1(Cc2ccc(Cl)cc2)CCN(c2nc(-c3ccncc3)n[nH]2)C1=O (centres unmarked) [Compound I-45]
The IC50 of the first is higher: > 1000 nM for the first, 501 to 1000 nM for the second. The second is the more potent here.

First: O=C1C(Cc2ccc(Cl)nc2)CCN1c1[nH]nc(-c2ccncc2)c1Cl (single isomer, unassigned) [I-34* (peak 1)]
Second: Cc1c(-c2ccncc2)n[nH]c1N1CCC(Cc2ccc(Cl)nc2)C1=O (centres unmarked) [Compound I-48]
The IC50 of the first is lower: < 50 nM for the first, 101 to 500 nM for the second.

First: N#Cc1cc(CC2CCN(c3cc(-c4ccncc4)n[nH]3)C2=O)ccc1Cl (centres unmarked) [Compound I-118]
Second: N#Cc1cc(CC2CCCN(c3cc(-c4ccncc4)n[nH]3)C2=O)ccc1Cl (centres unmarked) [Compound I-102]
The IC50 of the first is higher: 101 to 500 nM for the first, 51 to 100 nM for the second. The second is the more potent here.

First: O=C1C(Cc2ccc(F)nc2)CCN1c1cc(-c2ccncc2)n[nH]1 (single isomer, unassigned) [I-67* (peak 2)]
Second: O=C1C(Cc2ccc(C(F)(F)F)nc2)CCN1c1cc(-c2ccncc2)n[nH]1 (centres unmarked) [Compound I-112]
The IC50 of the first is lower: < 50 nM for the first, 101 to 500 nM for the second. The first is the more potent here.

First: O=C1C(Cc2ccc(Cl)nc2)CCCN1c1cc(-c2ccncc2)n[nH]1 (centres unmarked) [Compound I-21]
Second: O=C1C(Cc2ccc(Cl)nc2)CCCCN1c1cc(-c2ccncc2)n[nH]1 (single isomer, unassigned) [I-40* (peak 1)]
The IC50 of the first is lower: < 50 nM for the first, > 1000 nM for the second. The first is the more potent here.

`O=C1C(Cc2ccc(Cl)cc2)CCCN1c1cc(-c2ccncc2)n[nH]1` (centres unmarked) [Compound I-19] and `O=C1C(Cc2ccc(Cl)cc2)CCN1c1cc(-c2ccncc2)n[nH]1` (centres unmarked) [Compound I-15] cannot be ordered by IC50: < 50 nM for the first, < 50 nM for the second.

Compared with `O=C1C(Cc2ccc(Cl)nc2)CCCN1c1nnc(-c2ccncc2)[nH]1` (centres unmarked) [Compound I-55], `O=C1C(Cc2ccc(Cl)cc2)CCCN1c1nnc(-c2ccncc2)[nH]1` (centres unmarked) [Compound I-5] is lower in IC50: 51 to 100 nM for the first, < 50 nM for the second.

First: N#Cc1ccc(CC2CCN(c3cc(-c4ccncc4)n[nH]3)C2=O)cc1F (single isomer, unassigned) [I-37* (peak 1)]
Second: N#Cc1cc(CC2CCN(c3cc(-c4ccncc4)n[nH]3)C2=O)ccc1F (centres unmarked) [Compound I-116]
The IC50 of the first is lower: 51 to 100 nM for the first, 101 to 500 nM for the second.

First: O=C1C(Cc2ccc(Cl)nc2)CCCN1c1cc(-c2ccncc2)n[nH]1 (single isomer, unassigned) [I-21* (peak 2)]
Second: O=C1C(Cc2ccc(Cl)nc2)CCCCN1c1cc(-c2ccncc2)n[nH]1 (centres unmarked) [Compound I-40]
The IC50 of the first is lower: < 50 nM for the first, 101 to 500 nM for the second.

Compared with `O=C1C(Cc2ccc(Cl)nc2)CNN1c1cc(-c2ccncc2)n[nH]1` (centres unmarked) [Compound I-30], `N[C@H]1CC(Cc2ccc(Cl)nc2)C(=O)N(c2cc(-c3ccncc3)n[nH]2)C1` (single isomer, unassigned) [I-60* (peak 2)] is lower in IC50: > 1000 nM for the first, 101 to 500 nM for the second.

`O=C1C(Cc2ccc(F)nc2)CCN1c1nnc(-c2ccncc2)[nH]1` (single isomer, unassigned) [I-39* (peak 1)] and `O=C1C(Cc2ccc(F)cc2)CCN1c1nnc(-c2ccncc2)[nH]1` (single isomer, unassigned) [I-7* (peak 1)] fall in the same range of IC50: 101 to 500 nM for the first, 101 to 500 nM for the second.

First: Cc1c(N2CCC(Cc3ccc(Cl)cc3)C2=O)n[nH]c1-c1ccncc1 (single isomer, unassigned) [I-6* (peak 1)]
Second: N#Cc1c(-c2ccncc2)n[nH]c1N1CCC(Cc2ccc(Cl)cc2)C1=O (centres unmarked) [Compound I-52]
The IC50 of the first is higher: 51 to 100 nM for the first, < 50 nM for the second.

First: N#Cc1ccc(CC2CCCN(c3cc(-c4ccncc4)n[nH]3)C2=O)cc1 (centres unmarked) [Compound I-98]
Second: N#Cc1ccc(CC2CCCN(c3nc(-c4ccncc4)n[nH]3)C2=O)cc1 (centres unmarked) [Compound I-99]
The IC50 of the first is lower: < 50 nM for the first, 101 to 500 nM for the second. The first is the more potent here.

`O=C1C(Cc2cnc(Cl)c(F)c2)CCCN1c1nnc(-c2ccncc2)[nH]1` (centres unmarked) [Compound I-24] and `O=C1C(Cc2ccc(Cl)c(F)c2)CCCN1c1nnc(-c2ccncc2)[nH]1` (centres unmarked) [Compound I-10] cannot be ordered by IC50: < 50 nM for the first, < 50 nM for the second.

First: N#Cc1ccc(CC2CCN(c3nc(-c4ccncc4)n[nH]3)C2=O)cc1 (centres unmarked) [Compound I-115]
Second: N#Cc1ccc(CC2CCN(c3nc(-c4ccncc4)n[nH]3)C2=O)cn1 (centres unmarked) [Compound I-111]
The IC50 of the first is lower: 501 to 1000 nM for the first, > 1000 nM for the second. The first is the more potent here.

`O=C1C(Cc2ccc(F)nc2)CCN1c1[nH]nc(-c2ccncc2)c1F` (centres unmarked) [Compound I-33] and `O=C1C(Cc2ccc(Cl)nc2)CCN1c1[nH]nc(-c2ccncc2)c1F` (centres unmarked) [Compound I-36] cannot be ordered by IC50: < 50 nM for the first, < 50 nM for the second.

First: N#Cc1c(-c2ccncc2)n[nH]c1N1CCCC(Cc2ccc(Cl)nc2)C1=O (centres unmarked) [Compound I-68]
Second: N#Cc1c(-c2ccncc2)n[nH]c1N1CCC(Cc2ccc(Cl)nc2)C1=O (centres unmarked) [Compound I-51]
The IC50 of the first is higher: 101 to 500 nM for the first, 51 to 100 nM for the second.

First: N#Cc1cc(CC2CCCN(c3nc(-c4ccncc4)n[nH]3)C2=O)ccc1Cl (centres unmarked) [Compound I-103]
Second: O=C1C(Cc2ccc(Cl)cc2)CNCCN1c1nc(-c2ccncc2)n[nH]1 (single isomer, unassigned) [I-38* (peak 1)]
The IC50 of the first is lower: 101 to 500 nM for the first, 501 to 1000 nM for the second.

`O=C1C(Cc2ccc(F)c(F)c2)CCN1c1cc(-c2ccncc2)n[nH]1` (single isomer, unassigned) [I-16* (peak 1)] and `O=C1C(Cc2ccc(F)c(F)c2)CCCN1c1cc(-c2ccncc2)n[nH]1` (centres unmarked) [Compound I-22] cannot be ordered by IC50: < 50 nM for the first, < 50 nM for the second.

Compared with `Cc1c(N2CCC(Cc3ccc(Cl)cc3)C2=O)n[nH]c1-c1ccncc1` (centres unmarked) [Compound I-6], `O=C1C(Cc2ccc(Cl)cc2)CCN1c1nnc(-c2ccncc2)[nH]1` (single isomer, unassigned) [I-4* (peak 1)] is lower in IC50: 51 to 100 nM for the first, < 50 nM for the second.

`O=C1C(Cc2ccc(F)c(F)c2)CCN1c1nnc(-c2ccncc2)[nH]1` (single isomer, unassigned) [I-11* (peak 1)] and `O=C1C(Cc2ccc(F)c(F)c2)CCCN1c1nnc(-c2ccncc2)[nH]1` (centres unmarked) [Compound I-13] cannot be ordered by IC50: < 50 nM for the first, < 50 nM for the second.

Compared with `O=C1C(Cc2ccc(Cl)nc2)OCCN1c1nnc(-c2ccncc2)[nH]1` (centres unmarked) [Compound I-58], `O=C1C(Cc2ccc(Cl)cc2)OCCN1c1nnc(-c2ccncc2)[nH]1` (centres unmarked) [Compound I-44] is lower in IC50: 101 to 500 nM for the first, < 50 nM for the second.

First: O=C1C(Cc2ccc(Cl)cc2)OCCN1c1cc(-c2ccncc2)n[nH]1 (single isomer, unassigned) [I-47* (peak 1)]
Second: O=C1[C@H](Cc2ccc(Cl)cc2)NCCN1c1cc(-c2ccncc2)n[nH]1 [Compound I-1-a]
The IC50 of the first is lower: 51 to 100 nM for the first, 101 to 500 nM for the second.

First: O=C1C(Cc2ccc(Cl)c(F)c2)CCN1c1nnc(-c2ccncc2)[nH]1 (single isomer, unassigned) [I-8* (peak 1)]
Second: O=C1C(Cc2ccc(F)c(F)c2)CCN1c1nnc(-c2ccncc2)[nH]1 (single isomer, unassigned) [I-11* (peak 2)]
The IC50 of the first is lower: < 50 nM for the first, 51 to 100 nM for the second.

`O=C1C(Cc2ccc(Cl)c(F)c2)CCCN1c1cc(-c2ccncc2)n[nH]1` (centres unmarked) [Compound I-20] and `O=C1C(Cc2ccc(F)c(F)c2)CCN1c1cc(-c2ccncc2)n[nH]1` (centres unmarked) [Compound I-16] cannot be ordered by IC50: < 50 nM for the first, < 50 nM for the second.

Compared with `Cc1c(-c2ccncc2)n[nH]c1N1CCN[C@@H](Cc2ccc(Cl)cc2)C1=O` [Compound I-3-a], `Cc1c(-c2ccncc2)n[nH]c1N1CCC(Cc2ccc(Cl)nc2)C1=O` (single isomer, unassigned) [I-48* (peak 1)] is lower in IC50: > 1000 nM for the first, 101 to 500 nM for the second.

`Cc1c(-c2ccncc2)n[nH]c1N1CCC(Cc2cnc(Cl)c(F)c2)C1=O` (single isomer, unassigned) [I-41* (peak 1)] and `O=C1C(Cc2ccc(Cl)nc2)CCCN1c1[nH]nc(-c2ccncc2)c1F` (centres unmarked) [Compound I-31] fall in the same range of IC50: 101 to 500 nM for the first, 101 to 500 nM for the second.

Compared with `O=C1N(c2nnc(-c3ccncc3)[nH]2)CCC1(Cc1ccc(F)c(F)c1)Cc1ccc(F)c(F)c1` [Compound I-12], `O=C1C(Cc2ccc(F)c(F)c2)CCN1c1nnc(-c2ccncc2)[nH]1` (centres unmarked) [Compound I-11] is lower in IC50: > 1000 nM for the first, < 50 nM for the second.

First: N[C@H]1CC(Cc2ccc(Cl)nc2)C(=O)N(c2nnc(-c3ccncc3)[nH]2)C1 (single isomer, unassigned) [Compound I-61]
Second: [2H]C([2H])(c1ccc(Cl)nc1)C1([2H])C(=O)N(c2cc(-c3ccncc3)n[nH]2)C([2H])([2H])C([2H])([2H])C1([2H])[2H] (single isomer, unassigned) [I-79* (peak 2)]
The IC50 of the first is higher: > 1000 nM for the first, 101 to 500 nM for the second. The second is the more potent here.

Compared with `O=C1C(Cc2ccc(Cl)cc2)OCCN1c1cc(-c2ccncc2)n[nH]1` (single isomer, unassigned) [I-47* (peak 2)], `[2H]C1(Cc2ccc(F)nc2)C(=O)N(c2cc(-c3ccncc3)n[nH]2)C([2H])([2H])C([2H])([2H])C1([2H])[2H]` (centres unmarked) [Compound I-70] is lower in IC50: > 1000 nM for the first, 51 to 100 nM for the second. The second is the more potent here.

`N#Cc1ccc(CC2CCN(c3[nH]nc(-c4ccncc4)c3F)C2=O)cc1F` (single isomer, unassigned) [I-25* (peak 2)] was tested, and the IC50 was < 50 nM.
